Where two headings read alike, the source gives them in different places.
Key:
Assay type in all cases: binding
[1] = biological target: various enzymes (Homo sapiens, UniProt P00519, M351T)
Procedure: (§1) Ambit profiling was conducted in accordance with the manufacturer's instructions.

[2] = biological target: various enzymes (Homo sapiens, UniProt P00519, T315I)
Procedure: as §1

[3] = biological target: various enzymes (Homo sapiens, UniProt P07949, V804L)
Procedure: as §1

[4] = biological target: various enzymes (Homo sapiens, UniProt P08581); settings: compound 1 uM
Procedure: as §1

[5] = biological target: various enzymes (Homo sapiens, UniProt P08581, Y1235D)
Procedure: as §1

[6] = biological target: various enzymes (Homo sapiens, UniProt P29322); settings: compound 1 uM
Procedure: as §1

[7] = biological target: various enzymes (Homo sapiens, UniProt P31152); settings: compound 1 uM
Procedure: as §1

[8] = biological target: various enzymes (Homo sapiens, UniProt P42336); settings: compound 1 uM
Procedure: as §1

[9] = biological target: various enzymes (Homo sapiens, UniProt P43403); settings: compound 1 uM
Procedure: as §1

[10] = biological target: various enzymes (Homo sapiens, UniProt P48729); settings: compound 1 uM
Procedure: as §1

[11] = biological target: various enzymes (Homo sapiens, UniProt P49761); settings: compound 1 uM
Procedure: as §1

[12] = biological target: various enzymes (Homo sapiens, UniProt P51617); settings: compound 1 uM
Procedure: as §1

[13] = biological target: various enzymes (Homo sapiens, UniProt P51957); settings: compound 1 uM
Procedure: as §1

[14] = biological target: various enzymes (Homo sapiens, UniProt P54756); settings: compound 1 uM
Procedure: as §1

[15] = biological target: various enzymes (Homo sapiens, UniProt Q12866); settings: compound 1 uM
various enzymes (Homo sapiens, UniProt Q12866), sequence (Q12866 21-999): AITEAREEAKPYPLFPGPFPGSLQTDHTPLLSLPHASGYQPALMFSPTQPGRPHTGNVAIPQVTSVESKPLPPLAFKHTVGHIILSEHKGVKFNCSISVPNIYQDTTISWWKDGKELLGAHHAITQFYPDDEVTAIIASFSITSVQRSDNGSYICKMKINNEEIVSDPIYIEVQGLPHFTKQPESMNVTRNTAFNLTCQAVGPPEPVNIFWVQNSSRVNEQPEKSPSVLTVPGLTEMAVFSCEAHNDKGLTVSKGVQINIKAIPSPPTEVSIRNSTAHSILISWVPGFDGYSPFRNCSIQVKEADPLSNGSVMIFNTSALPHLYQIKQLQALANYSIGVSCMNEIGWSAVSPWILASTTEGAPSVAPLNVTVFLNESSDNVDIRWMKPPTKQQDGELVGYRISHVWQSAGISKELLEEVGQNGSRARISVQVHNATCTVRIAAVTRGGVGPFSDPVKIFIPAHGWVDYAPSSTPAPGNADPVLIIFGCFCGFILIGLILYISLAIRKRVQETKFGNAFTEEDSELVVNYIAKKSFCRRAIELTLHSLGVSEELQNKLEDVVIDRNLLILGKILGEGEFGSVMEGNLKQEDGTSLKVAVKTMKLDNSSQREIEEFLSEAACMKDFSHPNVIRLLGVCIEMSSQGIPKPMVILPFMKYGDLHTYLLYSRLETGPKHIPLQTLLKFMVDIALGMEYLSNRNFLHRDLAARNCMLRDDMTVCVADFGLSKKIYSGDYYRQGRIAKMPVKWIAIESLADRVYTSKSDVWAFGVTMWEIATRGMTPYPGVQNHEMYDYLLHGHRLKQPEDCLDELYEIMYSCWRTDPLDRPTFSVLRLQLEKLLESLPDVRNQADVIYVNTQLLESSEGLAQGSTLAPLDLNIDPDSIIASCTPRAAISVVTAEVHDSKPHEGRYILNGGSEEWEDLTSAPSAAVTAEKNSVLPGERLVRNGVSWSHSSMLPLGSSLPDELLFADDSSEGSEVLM
Procedure: as §1

[16] = biological target: various enzymes (Homo sapiens, UniProt Q13153); settings: compound 1 uM
Procedure: as §1

[17] = biological target: various enzymes (Homo sapiens, UniProt Q13164); settings: compound 1 uM
Procedure: as §1

[18] = biological target: various enzymes (Homo sapiens, UniProt Q14680); settings: compound 1 uM
various enzymes (Homo sapiens, UniProt Q14680), sequence (Q14680 whole entry): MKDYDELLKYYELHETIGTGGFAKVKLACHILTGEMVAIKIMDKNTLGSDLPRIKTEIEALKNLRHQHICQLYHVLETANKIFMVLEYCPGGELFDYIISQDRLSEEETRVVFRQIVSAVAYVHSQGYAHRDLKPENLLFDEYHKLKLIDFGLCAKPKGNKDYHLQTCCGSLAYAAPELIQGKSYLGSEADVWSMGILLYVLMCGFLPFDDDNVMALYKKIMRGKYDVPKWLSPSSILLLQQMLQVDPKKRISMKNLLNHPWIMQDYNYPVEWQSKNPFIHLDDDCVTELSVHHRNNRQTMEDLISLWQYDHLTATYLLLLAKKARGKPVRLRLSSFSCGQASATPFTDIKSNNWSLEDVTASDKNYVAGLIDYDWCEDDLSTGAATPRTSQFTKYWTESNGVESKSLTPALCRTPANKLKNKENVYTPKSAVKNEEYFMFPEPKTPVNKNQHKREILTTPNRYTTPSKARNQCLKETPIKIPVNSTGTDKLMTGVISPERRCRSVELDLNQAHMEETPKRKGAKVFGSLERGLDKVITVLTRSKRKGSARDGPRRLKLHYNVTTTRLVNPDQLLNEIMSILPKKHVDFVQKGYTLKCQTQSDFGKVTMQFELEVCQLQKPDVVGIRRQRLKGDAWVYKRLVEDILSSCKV
Procedure: as §1

[19] = biological target: various enzymes (Homo sapiens, UniProt Q16816); settings: compound 1 uM
various enzymes (Homo sapiens, UniProt Q16816), sequence (Q16816 whole entry): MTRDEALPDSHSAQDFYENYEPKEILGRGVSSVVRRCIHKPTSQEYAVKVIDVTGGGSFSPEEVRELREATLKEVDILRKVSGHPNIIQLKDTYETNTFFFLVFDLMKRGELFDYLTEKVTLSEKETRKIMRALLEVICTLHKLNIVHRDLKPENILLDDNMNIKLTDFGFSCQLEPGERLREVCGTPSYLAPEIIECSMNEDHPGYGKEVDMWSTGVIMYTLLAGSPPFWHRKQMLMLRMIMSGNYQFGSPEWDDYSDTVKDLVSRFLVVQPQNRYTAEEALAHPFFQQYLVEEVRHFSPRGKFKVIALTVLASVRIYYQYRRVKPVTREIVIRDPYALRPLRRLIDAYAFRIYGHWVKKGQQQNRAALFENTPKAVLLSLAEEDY
Procedure: as §1

[20] = biological target: various enzymes (Homo sapiens, UniProt Q6ZWH5); settings: compound 1 uM
Procedure: as §1

[21] = biological target: T1, various enzymes (Homo sapiens, UniProt Q96L34); settings: compound 1 uM
T1 sequence (Q96L34 1-752): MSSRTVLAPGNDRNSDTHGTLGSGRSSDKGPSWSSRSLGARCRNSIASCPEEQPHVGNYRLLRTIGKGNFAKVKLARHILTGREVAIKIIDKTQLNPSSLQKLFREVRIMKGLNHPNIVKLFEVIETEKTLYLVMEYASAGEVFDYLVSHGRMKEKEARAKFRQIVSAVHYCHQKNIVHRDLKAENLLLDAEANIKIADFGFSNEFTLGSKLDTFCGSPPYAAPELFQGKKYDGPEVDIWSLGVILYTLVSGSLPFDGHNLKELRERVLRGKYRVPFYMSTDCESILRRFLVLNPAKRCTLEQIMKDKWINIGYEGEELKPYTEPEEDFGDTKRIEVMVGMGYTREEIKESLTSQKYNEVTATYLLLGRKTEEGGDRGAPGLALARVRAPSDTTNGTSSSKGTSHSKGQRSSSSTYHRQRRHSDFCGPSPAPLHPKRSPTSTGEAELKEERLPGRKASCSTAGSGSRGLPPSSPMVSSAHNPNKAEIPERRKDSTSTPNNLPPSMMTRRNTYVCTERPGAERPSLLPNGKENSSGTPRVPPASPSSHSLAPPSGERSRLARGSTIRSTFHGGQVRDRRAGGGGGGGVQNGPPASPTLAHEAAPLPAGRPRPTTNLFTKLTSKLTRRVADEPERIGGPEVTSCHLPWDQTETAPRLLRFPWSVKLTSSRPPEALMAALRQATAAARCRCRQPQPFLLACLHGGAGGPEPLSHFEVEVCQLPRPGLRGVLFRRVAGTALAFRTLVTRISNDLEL
Procedure: as §1

[22] = biological target: various enzymes (Homo sapiens, UniProt Q9H3Y6); settings: compound 1 uM
various enzymes (Homo sapiens, UniProt Q9H3Y6), sequence (Q9H3Y6 whole entry): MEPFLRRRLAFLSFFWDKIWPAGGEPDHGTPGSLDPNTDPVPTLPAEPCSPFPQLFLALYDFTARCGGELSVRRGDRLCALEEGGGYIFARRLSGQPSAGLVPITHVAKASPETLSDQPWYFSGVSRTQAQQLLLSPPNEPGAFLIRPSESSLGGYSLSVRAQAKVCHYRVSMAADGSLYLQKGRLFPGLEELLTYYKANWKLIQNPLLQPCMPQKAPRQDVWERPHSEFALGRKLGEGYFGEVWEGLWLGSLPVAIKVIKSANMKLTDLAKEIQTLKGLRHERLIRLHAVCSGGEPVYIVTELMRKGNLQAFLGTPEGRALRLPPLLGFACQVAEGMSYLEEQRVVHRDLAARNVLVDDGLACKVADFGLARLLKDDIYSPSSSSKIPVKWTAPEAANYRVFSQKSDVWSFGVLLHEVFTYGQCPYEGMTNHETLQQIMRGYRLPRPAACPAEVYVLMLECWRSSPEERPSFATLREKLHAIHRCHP
Procedure: as §1

[23] = biological target: various enzymes (Homo sapiens, UniProt Q9H4B4); settings: compound 1 uM
Procedure: as §1

[24] = biological target: various enzymes (Homo sapiens, UniProt Q9P286); settings: compound 1 uM
various enzymes (Homo sapiens, UniProt Q9P286), sequence (Q9P286 whole entry): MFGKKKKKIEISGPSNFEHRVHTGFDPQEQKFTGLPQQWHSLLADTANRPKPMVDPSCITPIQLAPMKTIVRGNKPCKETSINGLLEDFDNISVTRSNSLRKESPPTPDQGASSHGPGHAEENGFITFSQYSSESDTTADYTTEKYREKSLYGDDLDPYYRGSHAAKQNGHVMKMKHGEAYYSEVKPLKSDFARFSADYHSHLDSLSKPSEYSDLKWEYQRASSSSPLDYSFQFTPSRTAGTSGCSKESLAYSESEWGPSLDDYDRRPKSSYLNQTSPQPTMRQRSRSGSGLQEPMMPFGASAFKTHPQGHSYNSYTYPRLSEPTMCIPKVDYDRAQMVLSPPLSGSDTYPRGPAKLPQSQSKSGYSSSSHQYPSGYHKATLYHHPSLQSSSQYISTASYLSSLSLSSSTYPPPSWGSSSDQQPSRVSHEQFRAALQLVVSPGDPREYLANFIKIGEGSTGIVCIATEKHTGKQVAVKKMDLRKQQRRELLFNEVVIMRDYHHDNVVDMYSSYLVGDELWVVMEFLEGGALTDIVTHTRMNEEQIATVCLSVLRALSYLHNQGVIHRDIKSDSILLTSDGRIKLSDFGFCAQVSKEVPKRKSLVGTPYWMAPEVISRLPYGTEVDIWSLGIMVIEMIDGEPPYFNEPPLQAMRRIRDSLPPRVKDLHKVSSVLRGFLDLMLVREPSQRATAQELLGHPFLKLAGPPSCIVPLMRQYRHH
Procedure: as §1

[25] = biological target: various enzymes (Homo sapiens, UniProt Q9UBE8); settings: compound 1 uM
Procedure: as §1

[26] = biological target: various enzymes (Homo sapiens, UniProt Q9UPE1); settings: compound 1 uM
Procedure: as §1

[27] = biological target: various enzymes (Mycobacterium tuberculosis, UniProt P9WI81); settings: compound 1 uM
various enzymes (Mycobacterium tuberculosis, UniProt P9WI81), sequence (P9WI81 whole entry): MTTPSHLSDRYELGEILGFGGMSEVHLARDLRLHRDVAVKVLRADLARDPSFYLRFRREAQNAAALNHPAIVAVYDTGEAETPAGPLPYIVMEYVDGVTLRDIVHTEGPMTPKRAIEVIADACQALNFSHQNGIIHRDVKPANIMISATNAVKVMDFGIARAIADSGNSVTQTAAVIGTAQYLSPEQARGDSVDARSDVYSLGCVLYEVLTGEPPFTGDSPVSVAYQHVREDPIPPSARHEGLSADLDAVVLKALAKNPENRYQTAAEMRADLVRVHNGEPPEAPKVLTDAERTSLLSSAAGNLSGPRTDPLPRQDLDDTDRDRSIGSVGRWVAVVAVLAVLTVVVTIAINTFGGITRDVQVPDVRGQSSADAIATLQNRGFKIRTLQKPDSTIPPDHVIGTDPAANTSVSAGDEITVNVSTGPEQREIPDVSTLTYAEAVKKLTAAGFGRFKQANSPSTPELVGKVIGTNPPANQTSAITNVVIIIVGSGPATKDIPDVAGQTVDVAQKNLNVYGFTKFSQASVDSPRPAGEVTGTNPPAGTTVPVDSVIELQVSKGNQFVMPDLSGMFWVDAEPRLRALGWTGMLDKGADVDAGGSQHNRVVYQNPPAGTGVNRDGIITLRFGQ
Procedure: as §1

various enzymes (Homo sapiens, UniProt P07949, V804L), sequence (P07949 29-1114 V804L): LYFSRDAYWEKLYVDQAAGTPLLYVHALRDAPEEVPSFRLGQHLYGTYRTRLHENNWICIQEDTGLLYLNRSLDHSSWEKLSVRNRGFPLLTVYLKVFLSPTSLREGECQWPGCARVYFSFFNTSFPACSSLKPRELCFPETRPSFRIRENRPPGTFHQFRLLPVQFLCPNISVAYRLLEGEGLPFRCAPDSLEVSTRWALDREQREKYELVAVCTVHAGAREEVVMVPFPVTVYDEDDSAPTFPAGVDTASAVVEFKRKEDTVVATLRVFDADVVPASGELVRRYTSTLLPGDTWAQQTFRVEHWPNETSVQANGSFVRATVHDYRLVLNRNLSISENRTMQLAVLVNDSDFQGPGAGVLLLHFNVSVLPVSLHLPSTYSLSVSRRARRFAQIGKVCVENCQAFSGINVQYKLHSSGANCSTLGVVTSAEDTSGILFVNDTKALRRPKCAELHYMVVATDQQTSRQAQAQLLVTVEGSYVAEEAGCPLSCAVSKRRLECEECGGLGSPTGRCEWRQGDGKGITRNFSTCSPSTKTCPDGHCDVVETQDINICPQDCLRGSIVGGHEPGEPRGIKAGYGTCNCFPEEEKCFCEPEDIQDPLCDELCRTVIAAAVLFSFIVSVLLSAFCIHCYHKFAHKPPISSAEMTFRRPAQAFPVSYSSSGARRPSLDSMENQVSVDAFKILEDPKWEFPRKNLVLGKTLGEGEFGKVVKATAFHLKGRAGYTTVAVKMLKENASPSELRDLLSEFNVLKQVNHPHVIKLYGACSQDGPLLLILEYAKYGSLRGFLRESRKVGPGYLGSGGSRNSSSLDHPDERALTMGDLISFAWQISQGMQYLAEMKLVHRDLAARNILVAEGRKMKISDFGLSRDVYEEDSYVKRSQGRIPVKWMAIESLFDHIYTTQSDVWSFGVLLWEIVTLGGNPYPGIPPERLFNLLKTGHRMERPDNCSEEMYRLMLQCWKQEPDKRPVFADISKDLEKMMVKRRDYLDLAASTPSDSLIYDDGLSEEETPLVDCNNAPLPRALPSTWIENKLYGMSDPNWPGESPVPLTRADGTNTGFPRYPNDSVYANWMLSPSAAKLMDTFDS

For `COc1c2c(nn1C)CN(C(C)C)C(=O)CCCn1cc(c(C(F)(F)F)n1)-c1c[nH]c3ncc-2cc13` [Compound 50, (Z)-5-isopropyl-35-methoxy-31-methyl-13-(trifluoromethyl)-11H,21H,31H-5-aza-2(3,5)-pyrrolo[2,3-b]pyridina-1(4,1),3(4,3)-dipyrazolacyclononaphan-6-one], the “Ambit profiling: ABL1(M351T)-phosphorylated” value [1] was 4.1, the “Ambit profiling: ABLT(T315I)-nonphosphorylated” value [2] was 8.8 and the “Ambit profiling: ABLT(T315I)-phosphorylated” value [2] was 4.9. The “Ambit profiling: RET(V804L)” value [3] was 18, the “Ambit profiling: MET” value [4] was 3.8 and the “Ambit profiling: MET(Y1235D)” value [5] was 1.4. For the same molecule, the “Ambit profiling: EPHA8” value [6] was 26, the “Ambit profiling: ERK4” value [7] was 82 and the “Ambit profiling: PIK3CA” value [8] was 83. The “Ambit profiling: ZAP70” value [9] was 100, the “Ambit profiling: CSNK1A1” value [10] was 74 and the “Ambit profiling: CLK3” value [11] was 26. The “Ambit profiling: IRAK1” value [12] was 2.1, the “Ambit profiling: NEK4” value [13] was 100 and the “Ambit profiling: EPHA5” value [14] was 67. The “Ambit profiling: MERTK” value [15] was 3.5, the “Ambit profiling: PAK1” value [16] was 76 and the “Ambit profiling: ERK5” value [17] was 70. For the same molecule, the “Ambit profiling: MELK” value [18] was 11, the “Ambit profiling: PHKG1” value [19] was 34 and the “Ambit profiling: NEK10” value [20] was 87. The “Ambit profiling: MARK4” value [21] was 55, the “Ambit profiling: SRMS” value [22] was 81 and the “Ambit profiling: PLK3” value [23] was 77. The “Ambit profiling: PAK7” value [24] was 100, the “Ambit profiling: NLK” value [25] was 84 and the “Ambit profiling: SRPK3” value [26] was 38. The “Ambit profiling: PKNB(M. tuberculosis)” value [27] was 36.
In the case of `CC(C)N1Cc2nn(C)cc2-c2cnc3[nH]cc(c3c2)-c2cn(nc2C(F)(F)F)CCCC1=O` [Compound 45, (Z)-5-isopropyl-31-methyl-13-(trifluoromethyl)-11H,21H,31H-5-aza-2(3,5)-pyrrolo[2,3-b]pyridina-1(4,1),3(4,3)-dipyrazolacyclononaphan-6-one], the “Ambit profiling: ABL1(M351T)-phosphorylated” value ([1]; compound 1 uM) is reported as 19, the “Ambit profiling: ABL1(T315I)-nonphosphorylated” value ([2]; compound 1 uM) is reported as 9.4 and the “Ambit profiling: ABL1(T315I)-phosphorylated” value ([2]; compound 1 uM) is reported as 11. The “Ambit profiling: RET(V804L)” value ([3]; compound 1 uM) was 10, the “Ambit profiling: MET” value [4] was 11 and the “Ambit profiling: MET(Y1235D)” value ([5]; compound 1 uM) was 4.8. The “Ambit profiling: EPHA8” value [6] was 8.7, the “Ambit profiling: ERK4” value [7] was 100 and the “Ambit profiling: PIK3CA” value [8] was 100. The “Ambit profiling: ZAP70” value [9] was 83, the “Ambit profiling: CSNK1A1” value [10] was 78 and the “Ambit profiling: CLK3” value [11] was 33. For the same molecule, the “Ambit profiling: IRAK1” value [12] was 1.4, the “Ambit profiling: NEK4” value [13] was 93 and the “Ambit profiling: EPHA5” value [14] was 92. For the same molecule, the “Ambit profiling: MERTK” value [15] was 0.6, the “Ambit profiling: PAK1” value [16] was 69 and the “Ambit profiling: ERK5” value [17] was 100. For the same molecule, the “Ambit profiling: MELK” value [18] was 0.25, the “Ambit profiling: PHKG1” value [19] was 34 and the “Ambit profiling: NEK10” value [20] was 97. The “Ambit profiling: MARK4” value [21] was 28, the “Ambit profiling: SRMS” value [22] was 69 and the “Ambit profiling: PLK3” value [23] was 95. The “Ambit profiling: PAK7” value [24] was 51, the “Ambit profiling: NLK” value [25] was 84 and the “Ambit profiling: SRPK3” value [26] was 13. The “Ambit profiling: PKNB(M. tuberculosis)” value [27] was 7.

Source: patent publication US12157741B2, “Macrocyclic inhibitors of DYRK1A” (DANA-FARBER CANCER INSTITUTE, INC., priority 2018, dated 2024)
